# The Kinase Knowledgebase extract (Sharma et al. 2016)
# Molecular target: PIK3CG (human) (UniProt P48736)
# Assay: Assessment of PIK3CG Kinase Activity
# PIK3CG (human), sequence (P48736 whole entry, looked up): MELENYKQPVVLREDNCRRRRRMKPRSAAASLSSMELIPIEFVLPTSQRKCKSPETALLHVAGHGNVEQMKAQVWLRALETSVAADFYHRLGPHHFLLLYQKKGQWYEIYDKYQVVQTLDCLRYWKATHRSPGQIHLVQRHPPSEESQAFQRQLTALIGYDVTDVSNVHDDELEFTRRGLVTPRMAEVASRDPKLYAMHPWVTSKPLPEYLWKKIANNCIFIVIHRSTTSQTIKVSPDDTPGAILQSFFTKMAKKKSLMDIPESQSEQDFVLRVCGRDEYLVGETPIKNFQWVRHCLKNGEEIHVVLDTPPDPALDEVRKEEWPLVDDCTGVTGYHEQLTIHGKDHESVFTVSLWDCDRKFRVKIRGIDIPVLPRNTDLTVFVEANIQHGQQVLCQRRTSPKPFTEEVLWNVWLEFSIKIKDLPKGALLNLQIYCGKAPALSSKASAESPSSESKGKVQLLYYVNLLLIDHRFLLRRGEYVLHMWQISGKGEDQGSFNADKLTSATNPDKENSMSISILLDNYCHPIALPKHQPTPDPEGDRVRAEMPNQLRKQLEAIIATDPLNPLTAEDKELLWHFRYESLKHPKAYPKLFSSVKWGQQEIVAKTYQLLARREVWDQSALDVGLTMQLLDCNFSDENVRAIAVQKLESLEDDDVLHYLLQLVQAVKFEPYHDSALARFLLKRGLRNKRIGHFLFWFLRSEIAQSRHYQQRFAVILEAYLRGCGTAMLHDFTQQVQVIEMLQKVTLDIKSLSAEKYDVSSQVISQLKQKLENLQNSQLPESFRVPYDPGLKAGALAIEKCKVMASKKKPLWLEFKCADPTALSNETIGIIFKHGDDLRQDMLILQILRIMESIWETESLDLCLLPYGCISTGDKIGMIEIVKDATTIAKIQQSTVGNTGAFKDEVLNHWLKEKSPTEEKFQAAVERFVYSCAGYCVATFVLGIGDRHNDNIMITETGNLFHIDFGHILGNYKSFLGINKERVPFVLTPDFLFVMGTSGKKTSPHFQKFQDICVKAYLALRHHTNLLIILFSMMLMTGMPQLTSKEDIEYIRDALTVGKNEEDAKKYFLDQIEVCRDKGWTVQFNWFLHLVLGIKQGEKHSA
row,Structure (SMILES),IC50 [nM]
1,CC(C)(C)OC(=O)Nc1cccc(CNC(=O)Nc2nc3c(s2)-c2nc(-c4ccccc4Cl)ncc2CC3)c1,< 800
2,O=C(Nc1ccccc1)Nc1nc2c(s1)-c1nc(-c3ccccc3Cl)ncc1CC2,< 800
3,CN1CCN(C(=O)N[C@H]2CCN(C(=O)Nc3nc4c(s3)-c3nc(-c5ccccc5Cl)ncc3CC4)C2)CC1,< 800
4,CN(C)CCN(C)C(=O)Nc1nc2c(s1)-c1nc(-c3ccccc3Cl)ncc1CC2,< 800
5,O=C(O)[C@H]1[C@H](c2ccccc2)CCN1C(=O)Nc1nc2c(s1)-c1nc(-c3ccccc3Cl)ncc1CC2,< 800
6,O=C(Nc1ccc(N2CCNCC2)cc1)Nc1nc2c(s1)-c1nc(-c3ccccc3Cl)ncc1CC2,< 800
7,CN(C)C(=O)Nc1nc2c(s1)-c1nc(-c3ccccc3Cl)ncc1CC2,< 800
8,O=C(NCc1cccc(N2CCOC2=O)c1)Nc1nc2c(s1)-c1nc(-c3ccccc3Cl)ncc1CC2,< 800
9,CN(C(=O)OC(C)(C)C)C1CCN(C(=O)Nc2nc3c(s2)-c2nc(-c4ccccc4Cl)ncc2CC3)C1 (stereo not given),< 800
10,O=C(NC[C@H]1CCCN1)Nc1nc2c(s1)-c1nc(-c3ccccc3Cl)ncc1CC2,< 800
11,COc1ccc(CCNC(=O)Nc2nc3c(s2)-c2nc(-c4ccccc4Cl)ncc2CC3)cc1OC,< 800
12,O=C(Nc1nc2c(s1)-c1nc(-c3ccccc3Cl)ncc1CC2)N1CCCC(C(O)c2ccccc2)C1 (stereo not given),< 800
13,CC(C)c1noc(CCNC(=O)Nc2nc3c(s2)-c2nc(-c4ccccc4Cl)ncc2CC3)n1,< 800
14,CC(C)(C)OC(=O)N[C@@H]1CCN(C(=O)Nc2nc3c(s2)-c2nc(-c4ccccc4Cl)ncc2CC3)C1,< 800
15,CC(C)(C)OC(=O)N1CCCCC1CNC(=O)Nc1nc2c(s1)-c1nc(-c3ccccc3Cl)ncc1CC2 (stereo not given),< 800
16,COc1ccccc1C1CCN(C(=O)Nc2nc3c(s2)-c2nc(-c4ccccc4Cl)ncc2CC3)C1 (stereo not given),< 800
17,O=C(Nc1nc2c(s1)-c1nc(-c3ccccc3Cl)ncc1CC2)N1CCOCC1,< 800
18,CCCn1cnc(CCNC(=O)Nc2nc3c(s2)-c2nc(-c4ccccc4Cl)ncc2CC3)c1,< 800
19,CC(=O)NC1CCN(C(=O)Nc2nc3c(s2)-c2nc(-c4ccccc4Cl)ncc2CC3)C1 (stereo not given),< 800
20,CCn1cc(CNC(=O)Nc2nc3c(s2)-c2nc(-c4ccccc4Br)ncc2CC3)cn1,< 800
21,Cc1c[nH]c(CCNC(=O)Nc2nc3c(s2)-c2nc(-c4ccccc4Cl)ncc2CC3)n1,< 800
22,CC(C)(CNc1ccc(C(C)(C)C)cc1)NC(=O)Nc1nc2c(s1)-c1nc(-c3ccccc3Cl)ncc1CC2,< 800
23,O=C(NCCc1ccccn1)Nc1nc2c(s1)-c1nc(-c3ccccc3Cl)ncc1CC2,< 800
24,O=C(NCc1ccc2cc[nH]c2c1)Nc1nc2c(s1)-c1nc(-c3ccccc3Cl)ncc1CC2,< 800
25,O=C(NCCC(=O)N1CCOCC1)Nc1nc2c(s1)-c1nc(-c3ccccc3Cl)ncc1CC2,< 800
26,CN(C)C(=O)N[C@H]1CCN(C(=O)Nc2nc3c(s2)-c2nc(-c4ccccc4Cl)ncc2CC3)C1,< 800

# Continued, values first:
row,IC50 [nM],Structure (SMILES)
1,< 800,NC(=O)N1Cc2ccc(CNC(=O)Nc3nc4c(s3)-c3nc(-c5ccccc5Cl)ncc3CC4)cc2C1
2,< 800,O=C(Nc1nc2c(s1)-c1nc(-c3ccccc3Cl)ncc1CC2)N1CCC(n2cnc3ccccc32)CC1
3,< 800,CN(C)C(=O)N[C@@H]1CCN(C(=O)Nc2nc3c(s2)-c2nc(-c4ccccc4Cl)ncc2CC3)C1
4,< 800,CC(C)(C)OC(=O)N[C@H]1CCN(C(=O)Nc2nc3c(s2)-c2nc(-c4ccccc4Cl)ncc2CC3)C1
5,< 800,O=C(NCCc1ccncc1)Nc1nc2c(s1)-c1nc(-c3ccccc3Cl)ncc1CC2
6,< 800,CC(=O)Nc1cccc(CNC(=O)Nc2nc3c(s2)-c2nc(-c4ccccc4Cl)ncc2CC3)c1
7,< 800,CC(C)CNC(=O)c1cccc(CNC(=O)Nc2nc3c(s2)-c2nc(-c4ccccc4Cl)ncc2CC3)c1
8,< 800,Cc1cccc(CNC(=O)Nc2nc3c(s2)-c2nc(-c4ccccc4Cl)ncc2CC3)c1
9,< 800,O=C(NCCC(=O)N1CCCC1)Nc1nc2c(s1)-c1nc(-c3ccccc3Cl)ncc1CC2
10,< 800,CC(C)NC(=O)Nc1nc2c(s1)-c1nc(-c3cccc(F)c3Cl)ncc1CC2
11,< 800,NC(=O)Nc1nc2c(s1)-c1nc(-c3cccc(F)c3Cl)ncc1CC2
12,< 800,COc1cccc(CCNC(=O)Nc2nc3c(s2)-c2nc(-c4ccccc4Cl)ncc2CC3)c1OC
13,< 800,CC(C)(C)OC(=O)NCc1cccc(CNC(=O)Nc2nc3c(s2)-c2nc(-c4ccccc4Cl)ncc2CC3)c1
14,< 800,COc1cccc(CCNC(=O)Nc2nc3c(s2)-c2nc(-c4ccccc4Cl)ncc2CC3)c1
15,< 800,O=C(NCc1cc(C2CC2)n[nH]1)Nc1nc2c(s1)-c1nc(-c3cccc(F)c3Cl)ncc1CC2
16,< 800,O=C(Nc1nc2c(s1)-c1nc(-c3ccccc3Cl)ncc1CC2)N1CCC(NC(=O)C(F)(F)F)C1 (stereo not given)
17,< 800,O=C(Nc1nc2c(s1)-c1nc(-c3ccccc3Cl)ncc1CC2)N1CCC(N2CCNC2=O)CC1
18,< 800,O=C(NCc1ccc(CN2CCNC2=O)cc1)Nc1nc2c(s1)-c1nc(-c3ccccc3Cl)ncc1CC2
19,< 800,CNC(=O)Nc1nc2c(s1)-c1nc(-c3ccccc3Br)ncc1CC2
20,< 800,Cn1cc(CNC(=O)Nc2nc3c(s2)-c2nc(-c4cccc(F)c4Cl)ncc2CC3)cn1

row,IC50 [nM],Structure (SMILES)
1,< 800,CC(C)c1nnc(CCNC(=O)Nc2nc3c(s2)-c2nc(-c4ccccc4C(F)(F)F)ncc2CC3)o1
2,< 800,CC(C)(C)OC(=O)NCC1CCCN1C(=O)Nc1nc2c(s1)-c1nc(-c3ccccc3Cl)ncc1CC2 (stereo not given)
3,< 800,COc1cccc([C@H](C)NC(=O)Nc2nc3c(s2)-c2nc(-c4ccccc4Cl)ncc2CC3)c1
4,< 800,O=C(NCc1ccccc1N1CCCCC1)Nc1nc2c(s1)-c1nc(-c3ccccc3Cl)ncc1CC2
5,< 800,CC(C)OC(=O)N[C@H]1CCN(C(=O)Nc2nc3c(s2)-c2nc(-c4ccccc4Cl)ncc2CC3)C1
6,< 800,CC(C)(C)c1ncc2c(n1)-c1sc(NC(=O)NCc3cccc(N4CCNC4=O)c3)nc1CC2
7,< 800,O=C(O)CC1(CNC(=O)Nc2nc3c(s2)-c2nc(-c4ccccc4Cl)ncc2CC3)CCCCC1
8,< 800,Cn1cccc1CCNC(=O)Nc1nc2c(s1)-c1nc(-c3ccccc3Cl)ncc1CC2
9,< 800,O=C(NCCc1cccnc1)Nc1nc2c(s1)-c1nc(-c3ccccc3Cl)ncc1CC2
10,< 800,Cn1nc(CNC(=O)Nc2nc3c(s2)-c2nc(-c4ccccc4Cl)ncc2CC3)cc1O
11,< 800,O=C1Cc2ccccc2CN1CC1CCN(C(=O)Nc2nc3c(s2)-c2nc(-c4ccccc4Cl)ncc2CC3)C1 (stereo not given)
12,< 800,CCn1cc(CNC(=O)Nc2nc3c(s2)-c2nc(-c4cccc(F)c4Cl)ncc2CC3)cn1
13,< 800,NC(=O)Nc1nc2c(s1)-c1nc(-c3ccccc3Cl)ncc1CC2
14,< 800,CN(C)Cc1cccc(CNC(=O)Nc2nc3c(s2)-c2nc(-c4ccccc4Cl)ncc2CC3)c1
15,< 800,CCc1csc(CCNC(=O)Nc2nc3c(s2)-c2nc(-c4ccccc4C(F)(F)F)ncc2CC3)n1
16,< 800,O=C(NCc1cccc(N2CCNC2=O)c1)Nc1nc2c(s1)-c1nc(-c3ccccc3Br)ncc1CC2
17,< 800,CC1(C)C(c2ccccc2)CCN1C(=O)Nc1nc2c(s1)-c1nc(-c3ccccc3Cl)ncc1CC2 (stereo not given)
18,< 800,O=C(NC[C@@H]1CCCN1)Nc1nc2c(s1)-c1nc(-c3ccccc3Cl)ncc1CC2
19,< 800,O=C(Nc1nc2c(s1)-c1nc(-c3ccccc3Cl)ncc1CC2)N1CC[C@@H](NC(=O)N2CCCCC2)C1
